Source: US20220251158A1, “INTERMEDIATE FILAMENT-DERIVED PEPTIDES AND THEIR USES” (UNIVERSITAT DE LLEIDA, priority 2019, published 2022)

Each sequence was assayed on different populations of leukocytes (assay: Annexin V expression in leukocytes with 9 amino acid core peptides). Details: 9 amino acid peptide added directly to cell culture.
Type: cell-based
Procedure: For cell death and apoptosis analysis, 400.000 of primary cells or 100.000 of cell line cells were incubated in 96-well plates in 200 μL of complete culture medium for 24 h at 37° C. and 5% CO2 in the absence or presence of 55 μM of different peptides. After 1 hour, 24 hours or 48 hours, apoptosis was measured by CFBlue Annexin V Apoptosis Detection Kit with PI (ANXVKCFB-100T, Immunostep), following kit protocol. For cleaved caspasa-3 intracellular staining, mononuclear cells were permeabilised following the manufacturer's instructions of the FoxP3 Staining Buffer Set (00-5523-00, eBioscience) and the cleaved caspasa-3-Pacific Blue (8788S, Cell Signalling) was used for staining. Cell suspensions were analysed by flow cytometry using FACS CANTO II instrumentation (BD, Biosciences, San Jose, Calif.) and Flowjo (version 8.7) software.
For “VKLALDIEI (Variant of core sequence - GFAP9)”, the “induction of the expression of annexin V” value was “not to be positive”. “VKMALDIEI (Variant of core sequence - Per9)” was tested, and the “induction of the expression of annexin V” value was “not to be positive”. For “VKMALDVEI (Variant of core sequence - Des9)”, the “induction of the expression of annexin V” value was “not to be positive”.
